# Measured values reported in PubChem BioAssay (NCI).
# Several values for one entry are separate records, joined by “and”; a condition that tells them apart may be missing. Equal entries are not always repeated.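 Cells were grown in 96-well plates and exposed to each compound for 48 hours at five concentrations; endpoints were interpolated linearly between bracketing concentrations, or set to the highest concentration if not reached. The concentration for 50% growth inhibition is given as GI50. TGI denotes the concentration required for complete inhibition of growth.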 Where a SMILES comes first, the peptide text is derived from it. The star is where a group is joined. Boc = CC(C)(C)OC(=O)*; OBn = c1ccc(CO*)cc1
# Legend:
# Experiment in all cases: NCI anticancer screen, dose series, 48 h
# EKVX NSCLC = system: EKVX NSCLC
# SF-539 CNS = system: SF-539 CNS
# OVCAR-8 ovarian = system: OVCAR-8 ovarian
# CAKI-1 renal = system: CAKI-1 renal
# KM12 colon = system: KM12 colon
# SK-MEL-2 melanoma = system: SK-MEL-2 melanoma
# TK-10 renal = system: TK-10 renal
# A549 NSCLC = system: A549 NSCLC
# HCC-2998 colon = system: HCC-2998 colon
# CCRF-CEM leukemia = system: CCRF-CEM leukemia
Compound,GI50 (EKVX NSCLC),TGI (EKVX NSCLC),TGI (SF-539 CNS),GI50 (OVCAR-8 ovarian),TGI (OVCAR-8 ovarian),GI50 (CAKI-1 renal),TGI (CAKI-1 renal),GI50 (KM12 colon),TGI (KM12 colon),TGI (SK-MEL-2 melanoma),TGI (TK-10 renal) [µM],GI50 (A549 NSCLC) [µM],TGI (A549 NSCLC),TGI (HCC-2998 colon),TGI (CCRF-CEM leukemia) [µM]
NC(=O)C#CC(N)=O,16.1 µM and 18.1 µM and > 100 µM,29.7 µM and 35 µM and > 100 µM,46.3 µM and 68.9 µM,8.34 µM and 19.2 µM,23.4 µM and 47.5 µM,2.81 µM and 12.5 µM and 18.2 µM,10.3 µM and 24.2 µM and 33.8 µM,38.9 µM and 54.1 µM and > 100 µM,164 µM and 161 µM and > 100 µM,30.2 µM and 26.4 µM and 42.8 µM,36.2,49.4,173 µM and 189 µM and > 100 µM,179 µM and > 100 µM,–
COC(=O)c1cc(C#N)[nH]c1-c1ccc(C)s1,–,78.6 µM,> 100 µM,–,> 100 µM,–,> 100 µM,–,> 100 µM,–,–,–,> 100 µM,> 100 µM,> 100
[N-]=[N+]=CC(=O)OCC1SCCCS1,–,> 100 µM,–,–,–,–,> 100 µM,–,> 100 µM,> 100 µM,> 100,–,–,> 100 µM,> 100
CN(NC(=O)CCCl)C1=NCCCCN1,–,> 100 µM,> 100 µM,–,> 100 µM,–,–,–,> 100 µM,> 100 µM,> 100,–,> 100 µM,> 100 µM,> 100
CN(C)Cc1cc(O)c(O)c(CN(C)C)c1,–,71.5 µM,–,–,> 100 µM,–,> 100 µM,–,> 100 µM,> 100 µM,> 100,–,> 100 µM,81.8 µM,61.8
C1CCC(OC2CSC2)OC1 (configuration not stated),–,–,–,–,> 100 µM,–,–,–,> 100 µM,–,> 100,–,> 100 µM,> 100 µM,> 100
COP(=O)(OC)C(Cc1c[nH]c2ccccc12)NC(=O)OCc1ccccc1 (configuration not stated),–,–,–,–,> 100 µM,–,> 100 µM,–,–,> 100 µM,> 100,–,> 100 µM,> 100 µM,29.2
CNC(=O)c1cc(NC(=O)N(CCC#N)CCN(C(=O)N[C@@H](Cc2ccccc2)C(=O)N[C@@H](CC(C)C)C(=O)NC)c2ccccc2)ccc1OC,–,> 100 µM,> 66.3 µM,–,> 100 µM,–,> 100 µM,–,> 100 µM,> 74.5 µM,> 100,–,> 100 µM,–,> 100
O=C1/C(=C/c2ccccc2[N+](=O)[O-])N=C(c2ccccc2)N1C1Nc2cc3c(cc2S1)NC(N1C(=O)/C(=C/c2ccccc2[N+](=O)[O-])N=C1c1ccccc1)S3 (configuration not stated),–,> 100 µM,> 100 µM,–,> 100 µM,–,> 100 µM,–,> 100 µM,> 100 µM,> 100,–,> 100 µM,38.1 µM,–
Oc1[nH]c2ccccc2c1N=Nc1nc(-c2ccc(Cl)c(Cl)c2)cs1,–,> 100 µM,> 100 µM,–,> 100 µM,–,> 100 µM,–,> 100 µM,> 100 µM,> 100,–,> 100 µM,> 100 µM,–
O=c1c(C=Nc2ccc([N+](=O)[O-])cc2)c(O)n(-c2ccccc2)c(=O)n1-c1ccccc1,–,> 100 µM,–,–,> 100 µM,–,> 100 µM,–,> 100 µM,> 100 µM,> 100,–,> 100 µM,> 100 µM,> 100
COc1cc(/C=C2\N=C(c3ccccc3)N(c3nc4c(OC)ccc(OC)c4s3)C2=O)cc(OC)c1OC,–,> 100 µM,–,–,> 100 µM,–,> 100 µM,–,> 100 µM,> 100 µM,> 100,–,> 100 µM,> 100 µM,> 100
O=C(c1ccccc1)c1ccc2nc(-c3c(Cl)c(Cl)c(Cl)c(Cl)c3C(=O)N/N=C/c3ccccc3)[nH]c2c1,–,60.2 µM,> 100 µM,–,> 100 µM,–,> 100 µM,–,> 100 µM,67.5 µM,> 100,–,> 100 µM,–,> 100
O=[N+]([O-])c1ccc(N=Nc2c(O)c(S(=O)(=O)O)cc3cc(S(=O)(=O)O)ccc23)cc1,–,> 100 µM,> 100 µM,–,> 100 µM,–,> 100 µM,–,–,> 100 µM,> 100,–,> 100 µM,> 100 µM,> 100
CC(NC(=O)C(NC(=O)OC(C)(C)C)C(C)C)C(=O)N1CCCC1C(=O)NCC(=O)NC(C(=O)NCC(=O)OCc1ccccc1)C(C)C (configuration not stated) (Boc-VAPGVG-OBn; configuration not given here),–,> 100 µM,> 100 µM,–,> 100 µM,–,> 100 µM,–,–,> 100 µM,> 100,–,–,> 100 µM,> 100
C=CCNC(=O)NC1=CSC2=NC(=O)C3(NN12)c1ccccc1-c1ccccc13,–,> 10 µM,> 10 µM,–,> 10 µM,–,> 10 µM,–,> 10 µM,–,> 10,–,> 10 µM,> 10 µM,> 10
O=C1C=C(Br)c2c(Br)sc(Br)c21,–,37.3 µM,18.2 µM,–,12.1 µM,–,26.6 µM,–,37.3 µM,49.3 µM,23.5,–,> 77.3 µM,28.1 µM,–
CC(CO)C1C[C@H](O)[C@@]2(C)CC(=O)C=C(CO)[C@@H]2C1 (some centres not stated),–,> 100 µM,> 100 µM,–,> 100 µM,–,> 100 µM,–,> 100 µM,> 100 µM,> 100,–,> 100 µM,> 100 µM,–
O=c1cc(N2CCCC2)[nH]c(=O)n1-c1cccc(C(F)(F)F)c1,–,> 100 µM,> 100 µM,–,> 100 µM,–,> 100 µM,–,> 100 µM,> 100 µM,> 100,–,–,> 100 µM,> 100
OC1(c2cc3ccccc3s2)CCCCC1,–,71.7 µM,> 100 µM,–,> 100 µM,–,> 100 µM,–,> 100 µM,–,> 100,–,> 100 µM,> 100 µM,66.7
CC(=O)O[C@]12CCCC1C1(O)C(O)CCCC12 (some centres not stated),–,> 100 µM,–,–,> 100 µM,–,–,–,> 100 µM,> 100 µM,> 100,–,> 100 µM,–,> 100
COC(=O)/C=C/c1cc(O)c2c(c1)[C@H](C(=O)OC)[C@@H](c1ccc(O)c(O)c1)O2,–,> 85 µM,–,–,4.37 µM,–,> 100 µM,–,14.5 µM,> 70 µM,> 100,–,> 100 µM,54.6 µM,5.18
